# Source: US20090068146A1, “DIARYL UREAS AND COMBINATIONS” (priority 2005, published 2009)
row,SMILES,melting point [°C]
1,"CNC(=O)c1cc(Oc2ccc(NC(=O)Nc3cc(C(F)(F)F)ccc3OC)cc2Cl)ccn1 [Entry 20, ({3-chloro-4-[2-(N-methylcarbamoyl)(4-pyridyloxy)]phenyl}amino)-N-[2-methoxy-5-(trifluoromethyl)phenyl]carboxamide]",214 to 216
2,"CCNC(=O)c1cc(Oc2ccc(NC(=O)Nc3cc(C(F)(F)F)ccc3OC)cc2)ccn1 [Entry 19, ({4-[2-(N-ethylcarbamoyl)(4-pyridyloxy)]phenyl}amino)-N-[2-methoxy-5-(trifluoromethyl)phenyl]carboxamide]",194 to 196
3,"COc1ccc(C(F)(F)F)cc1NC(=O)Nc1ccc(Oc2ccnc(C(N)=O)c2)cc1 [Entry 14, 4-[4-({N-[2-methoxy-5-(trifluoromethyl)phenyl]carbamoyl}amino)phenoxy]pyridine-2-carboxamide]",114 to 117
4,"CNC(=O)c1cc(Oc2ccc(NC(=O)Nc3cc(C(F)(F)F)ccc3OC)c(Cl)c2)ccn1 [Entry 17, ({2-chloro-4-[2-(N-methylcarbamoyl)(4-pyridyloxy)]phenyl}amino)-N-[2-methoxy-5-(trifluoromethyl)phenyl]carboxamide]",187 to 188
5,"CNC(=O)c1cc(Oc2ccc(NC(=O)Nc3cc(C(F)(F)F)ccc3OC)c(C)c2)ccn1 [Entry 16, {4-[4-({N-[2-methoxy-5-(trifluoromethyl)phenyl]carbamoyl}amino)-3-methylphenoxy](2-pyridyl)}-N-methylcarboxamide]",210 to 213
6,"CNC(=O)c1cc(Sc2ccc(NC(=O)Nc3cc(C(F)(F)F)ccc3OC)cc2)ccn1 [Entry 27, N-[2-methoxy-5-(trifluoromethyl)phenyl]({4-[2-(N-methylcarbamoyl)(4-pyridylthio)]phenyl}amino)carboxamide]",218 to 219

# Second part, the molecule after the results:
row,melting point [°C],SMILES
1,180 to 181,"CCNC(=O)c1cc(Oc2ccc(NC(=O)Nc3cc(C(F)(F)F)c(Cl)cc3OC)cc2)ccn1 [Entry 99, N-[4-chloro-2-methoxy-5-(trifluoromethyl)phenyl]({4-[2-(N-ethylcarbamoyl)(4-pyridyloxy)]phenyl}amino)carboxamide]"
2,147 to 151,"CNC(=O)c1cc(Oc2ccc(NC(=O)Nc3ccc(Cl)c(C(F)(F)F)c3)c(Cl)c2)ccn1 [Entry 49, {4-[3-chloro-4-({[4-chloro-3-(trifluoromethyl)phenyl]amino}carbonylamino)phenoxy](2-pyridyl)}-N-methylcarboxamide]"
3,220 to 221,"CNC(=O)c1cc(Oc2ccc(NC(=O)Nc3cc(C(F)(F)F)c(Cl)cc3OC)cc2Cl)ccn1 [Entry 97, N-[4-chloro-2-methoxy-5-(trifluoromethyl)phenyl]({3-chloro-4-[2-(N-methylcarbamoyl)(4-pyridyloxy)]phenyl}amino)carboxamide]"
4,183 to 184,"CCNC(=O)c1cc(Oc2ccc(NC(=O)Nc3ccc(Br)c(C(F)(F)F)c3)cc2)ccn1 [Entry 88, N-[4-bromo-3-(trifluoromethyl)phenyl]({4-[2-(N-ethylcarbamoyl)(4-pyridyloxy)]phenyl}amino)carboxamide]"
5,217 to 219,"CNC(=O)c1cc(Oc2ccc(NC(=O)Nc3ccc(Br)c(C(F)(F)F)c3)cc2Cl)ccn1 [Entry 87, {4-[4-({[4-bromo-3-(trifluoromethyl)phenyl]amino}carbonylamino)-2-chlorophenoxy](2-pyridyl)}-N-methylcarboxamide]"
6,140 to 144,"CNC(=O)c1cc(Oc2ccc(NC(=O)Nc3cc(C(F)(F)F)c(Cl)cc3OC)cc2)ccn1 [Entry 95, N-[4-chloro-2-methoxy-5-(trifluoromethyl)phenyl]({4-[2-(N-methylcarbamoyl)(4-pyridyloxy)]phenyl}amino)carboxamide]"
7,244 to 245,"CNC(=O)c1cc(Oc2ccc(NC(=O)Nc3cc(C(F)(F)F)c(Cl)cc3OC)c(Cl)c2)ccn1 [Entry 96, N-[4-chloro-2-methoxy-5-(trifluoromethyl)phenyl]({2-chloro-4-[2-(N-methylcarbamoyl)(4-pyridyloxy)]phenyl}amino)carboxamide]"
8,187 to 189,"CCNC(=O)c1cc(Oc2ccc(NC(=O)Nc3ccc(Cl)c(C(F)(F)F)c3)cc2)ccn1 [Entry 51, N-[4-chloro-3-(trifluoromethyl)phenyl]({4-[2-(N-ethylcarbamoyl)(4-pyridyloxy)]phenyl}amino)carboxamide]"
